Experiments:
Human CARM1 (PRMT4) = molecular target: T1, Human CARM1 (PRMT4) (Homo sapiens, UniProt Q86X55); assay: CARM1 enzyme assay on peptide substrate (3H-SAM Flashplate); assay type: biochemical; conditions: CARM1 0.25 nM, 3H-SAM 30 nM, peptide 250 nM; read-out: Biochem IC50
T1 construct: Flag-CARM1-His was eluted with 200 ug/ml FLAG peptide in buffer A; made in house; host or cells: HEK 293F cells infected with recombinant baculovirus (pFastBacMam)
Summary of the method: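 Flag-CARM1-His (isoform 1, Δ539-561; HEK293F-expressed), 0.25 nM, preincubated 30 min RT with compound, then 30 nM 3H-SAM and 250 nM biotinylated H3(16-30) R26me1 peptide in pH 7.6 Bicine buffer, 2% DMSO. Stopped with 300 uM cold SAM; streptavidin Flashplate capture, cpm. % inhibition vs DMSO/1 mM SAH, 3- or 4-parameter fit.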

[1] = tested on: asymmetric di-methyl PABP1 in RKO cells; assay: RKO methylation assay (In Cell Western for asymmetric di-methyl PABP1); assay type: cell-based; conditions: Homo sapiens, 48 hours incubation, read-out: Cellular IC50
Summary of the method: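 RKO cells treated 48 h at 37 °C, then fixed, methanol-permeabilized and probed for asymmetric di-methyl PABP1 (16 h, 4 °C) with DRAQ5 counterstain; 800/700 nm intensity ratio read.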

T1 sequence (Q86X55 other isoform, or with tags, fused parts or gaps): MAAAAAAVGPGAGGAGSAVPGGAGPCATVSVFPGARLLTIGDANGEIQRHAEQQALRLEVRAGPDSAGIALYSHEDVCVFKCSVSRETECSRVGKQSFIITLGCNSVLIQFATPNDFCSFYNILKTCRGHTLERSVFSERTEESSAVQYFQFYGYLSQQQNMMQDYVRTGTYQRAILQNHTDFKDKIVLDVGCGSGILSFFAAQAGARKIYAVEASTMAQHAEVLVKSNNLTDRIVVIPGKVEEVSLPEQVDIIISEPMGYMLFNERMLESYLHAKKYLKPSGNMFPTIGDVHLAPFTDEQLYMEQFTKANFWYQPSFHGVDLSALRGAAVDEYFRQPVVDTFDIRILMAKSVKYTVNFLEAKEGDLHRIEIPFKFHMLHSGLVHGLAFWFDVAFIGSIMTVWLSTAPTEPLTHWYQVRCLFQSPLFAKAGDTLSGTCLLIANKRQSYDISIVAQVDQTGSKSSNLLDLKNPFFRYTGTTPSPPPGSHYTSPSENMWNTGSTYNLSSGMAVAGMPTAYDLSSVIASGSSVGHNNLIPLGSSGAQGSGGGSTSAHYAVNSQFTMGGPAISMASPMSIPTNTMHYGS

For `CNCC(O)COc1cc(OC)cc(-c2cc(N3CC4(CCOCC4)C3)n3ncc(C(C)C)c3n2)c1` (stereo not drawn) [Example 49-6], which IC50 (Human CARM1 (PRMT4)) is on record?
Its IC50 is 100 to 1000 nM.

And the IC50 [1]?
The IC50 was > 20000 nM.

What does the source list for `CNCC(O)COc1cc(Cl)cc(-c2cc(N3CC4(CCOCC4)C3)n3ncc(C(C)C)c3n2)c1` (stereo not drawn) [Example 50-6]?
IC50 (Human CARM1 (PRMT4)): < 100 nM; IC50 [1]: > 20000 nM

Which results are given for `CNCC(O)COc1cc(OC)cc(-c2cc(N3CC(CO)(CCl)C3)n3ncc(C(C)C)c3n2)c1` (stereo not drawn) [Example 52-6]?
IC50 (Human CARM1 (PRMT4)): < 100 nM; IC50 [1]: > 20000 nM

With `CNCC(O)COc1cc(Cl)cc(-c2cc(N3CC(CO)(CCl)C3)n3ncc(C(C)C)c3n2)c1` (stereo not drawn) [Example 53-6] as the molecule, how does the IC50 (Human CARM1 (PRMT4)) read?
The IC50 was < 100 nM.

And the IC50 [1]?
The IC50 was > 20000 nM.

What does the source list for `CNCC(O)COc1cccc(-c2cc(NCCCCCNC(=O)c3ccn(C)n3)c3cnn(C(C)C)c3n2)c1` (stereo not drawn) [Example 64-1]?
IC50 (Human CARM1 (PRMT4)): 100 to 1000 nM; IC50 [1]: 10000 to 20000 nM

How did the IC50 (Human CARM1 (PRMT4)) turn out when `CNCC(O)COc1cccc(-c2cc(NCCCCCCNC(=O)c3ccn(C)n3)c3cnn(C(C)C)c3n2)c1` (stereo not drawn) [Example 66-1] was run?
The IC50 was < 100 nM.

And the IC50 [1]?
The IC50 was > 20000 nM.
